≈ marks a conversion by molar mass, not a printed value.
Assays:
Format in all cases: cell-based
[1] = system: Mannheimia haemolytica MH 6357 (M7/2, reference strain, cattle infection strain); assay: MIC, broth-microdilution (CLSI VET01-A4), strain MH 6357; conditions: Mannheimia haemolytica strain MH 6357, broth-microdilution; unit assumed
Procedure, shortened: (§1)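 Visual endpoint: the first dilution of a doubling series lacking turbidity gives the MIC; CLSI VET01-S3 interpretive rules applied.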

[2] = system: Mannheimia haemolytica MH 6374 (ATCC 33396, reference strain); assay: MIC, broth-microdilution (CLSI VET01-A4), strain MH 6374; conditions: Mannheimia haemolytica strain MH 6374, broth-microdilution; unit assumed
Procedure, shortened: as §1

[3] = system: Mannheimia haemolytica MH 10720 (154, BRD field isolate); assay: MIC, broth-microdilution (CLSI VET01-A4), strain MH 10720; conditions: Mannheimia haemolytica strain MH 10720, broth-microdilution; unit assumed
Procedure, shortened: as §1

[4] = system: Mannheimia haemolytica MH 12587 (1071, BRD field isolate, macrolide-resistance: erm+, E+); assay: MIC, broth-microdilution (CLSI VET01-A4), strain MH 12587; conditions: Mannheimia haemolytica strain MH 12587, broth-microdilution; unit assumed
Procedure, shortened: as §1

[5] = system: Mannheimia haemolytica MH 13065 (XB0446-6003.9, BRD field isolate); assay: MIC, broth-microdilution (CLSI VET01-A4), strain MH 13065; conditions: Mannheimia haemolytica strain MH 13065, broth-microdilution; unit assumed
Procedure, shortened: as §1

[6] = system: Mannheimia haemolytica MH 13093 (XB0472-6014.1, BRD field isolate); assay: MIC, broth-microdilution (CLSI VET01-A4), strain MH 13093; conditions: Mannheimia haemolytica strain MH 13093, broth-microdilution; unit assumed
Procedure, shortened: as §1

[7] = system: Pasteurella multocida PM 6267 (P 2225 (L386), reference strain, mouse infection strain); assay: MIC, broth-microdilution (CLSI VET01-A4), strain PM 6267; conditions: Pasteurella multocida strain PM 6267, broth-microdilution; unit assumed
Procedure, shortened: as §1

[8] = system: Pasteurella multocida PM 6391 (ATCC 43137, reference strain); assay: MIC, broth-microdilution (CLSI VET01-A4), strain PM 6391; conditions: Pasteurella multocida strain PM 6391, broth-microdilution; unit assumed
Procedure, shortened: as §1

[9] = system: Pasteurella multocida PM 10775 (080130003051, BRD field isolate); assay: MIC, broth-microdilution (CLSI VET01-A4), strain PM 10775; conditions: Pasteurella multocida strain PM 10775, broth-microdilution; unit assumed
Procedure, shortened: as §1

[10] = system: Pasteurella multocida PM 12080 (IV102277-0093, BRD field isolate); assay: MIC, broth-microdilution (CLSI VET01-A4), strain PM 12080; conditions: Pasteurella multocida strain PM 12080, broth-microdilution; unit assumed
Procedure, shortened: as §1

Compound | MIC MH 6357 [1] [µg/mL] | MIC MH 6374 [2] [µg/mL] | MIC MH 10720 [3] [µg/mL] | MIC MH 12587 [4] [µg/mL] | MIC MH 13065 [5] [µg/mL] | MIC MH 13093 [6] [µg/mL] | MIC PM 6267 [7] [µg/mL] | MIC PM 6391 [8] [µg/mL] | MIC PM 10775 [9] [µg/mL] | MIC PM 12080 [10] [µg/mL]
CON=C(C)[C@H](NC(=O)c1ccc(C#Cc2ccc(CNC3CC3)cc2)cc1)C(=O)NO [Compound 378] | 0.8 (≈ 1.84 µM) | 0.8 (≈ 1.84 µM) | 0.4 (≈ 0.921 µM) | 0.2 (≈ 0.46 µM) | 0.8 (≈ 1.84 µM) | 0.8 (≈ 1.84 µM) | 1.6 (≈ 3.68 µM) | ≤ 0.1 | 0.4 (≈ 0.921 µM) | 0.2 (≈ 0.46 µM)
C=CCNCc1ccc(C#Cc2ccc(C(=O)N[C@H](C(=O)NO)C(C)=NOC)cc2)cc1 [Compound 379] | 0.8 (≈ 1.84 µM) | 1.6 (≈ 3.68 µM) | 0.8 (≈ 1.84 µM) | 0.4 (≈ 0.921 µM) | 1.6 (≈ 3.68 µM) | 1.6 (≈ 3.68 µM) | 3.1 (≈ 7.13 µM) | ≤ 0.1 | 0.4 (≈ 0.921 µM) | 0.4 (≈ 0.921 µM)
COCCNCc1ccc(C#Cc2ccc(C(=O)N[C@H](C(=O)NO)C(C)=NOC)cc2)cc1 [Compound 380] | 3.1 (≈ 6.85 µM) | 6.3 (≈ 13.9 µM) | 3.1 (≈ 6.85 µM) | 0.8 (≈ 1.77 µM) | 3.1 (≈ 6.85 µM) | 6.3 (≈ 13.9 µM) | 6.3 (≈ 13.9 µM) | 0.2 (≈ 0.442 µM) | 1.6 (≈ 3.54 µM) | 0.8 (≈ 1.77 µM)
CON=C(C)[C@H](NC(=O)c1ccc(C#Cc2ccc(CN3CCOCC3)cc2)cc1)C(=O)NO [Compound 381] | 1.6 (≈ 3.44 µM) | 3.1 (≈ 6.67 µM) | 0.4 (≈ 0.861 µM) | 1.6 (≈ 3.44 µM) | 1.6 (≈ 3.44 µM) | 1.6 (≈ 3.44 µM) | 1.6 (≈ 3.44 µM) | ≤ 0.1 | 0.2 (≈ 0.431 µM) | 0.2 (≈ 0.431 µM)
CON=C(C)[C@H](NC(=O)c1ccc(C#Cc2ccc(CNCc3ccccc3)cc2)cc1)C(=O)NO [Compound 382] | 0.8 (≈ 1.65 µM) | 1.6 (≈ 3.3 µM) | 0.8 (≈ 1.65 µM) | 0.2 (≈ 0.413 µM) | 0.8 (≈ 1.65 µM) | 0.8 (≈ 1.65 µM) | 0.8 (≈ 1.65 µM) | ≤ 0.1 | 0.4 (≈ 0.825 µM) | 0.4 (≈ 0.825 µM)
CON=C(C)[C@H](NC(=O)c1ccc(C#Cc2ccc(CNCc3ccc(OC)cc3)cc2)cc1)C(=O)NO [Compound 383] | 0.8 (≈ 1.55 µM) | 1.6 (≈ 3.11 µM) | 0.8 (≈ 1.55 µM) | 0.4 (≈ 0.777 µM) | 1.6 (≈ 3.11 µM) | 1.6 (≈ 3.11 µM) | 6.3 (≈ 12.2 µM) | ≤ 0.1 | 0.8 (≈ 1.55 µM) | 0.4 (≈ 0.777 µM)
CON=C(C)[C@H](NC(=O)c1ccc(C#Cc2ccc(CN3CCCC3)cc2)cc1)C(=O)NO [Compound 384] | 6.3 (≈ 14 µM) | 12.5 (≈ 27.9 µM) | 3.1 (≈ 6.91 µM) | 1.6 (≈ 3.57 µM) | 6.3 (≈ 14 µM) | 6.3 (≈ 14 µM) | 12.5 (≈ 27.9 µM) | 0.4 (≈ 0.892 µM) | 3.1 (≈ 6.91 µM) | 1.6 (≈ 3.57 µM)
CON=C(C)[C@H](NC(=O)c1ccc(C#Cc2ccc(CNC3CCC3)cc2)cc1)C(=O)NO [Compound 385] | 3.1 (≈ 6.91 µM) | 6.3 (≈ 14 µM) | 1.6 (≈ 3.57 µM) | 1.6 (≈ 3.57 µM) | 3.1 (≈ 6.91 µM) | 6.3 (≈ 14 µM) | 25 (≈ 55.7 µM) | 0.2 (≈ 0.446 µM) | 0.8 (≈ 1.78 µM) | 0.4 (≈ 0.892 µM)
CON=C(C)[C@H](NC(=O)c1ccc(C#Cc2ccc(CNC3CCCC3)cc2)cc1)C(=O)NO [Compound 386] | 12.5 (≈ 27 µM) | 12.5 (≈ 27 µM) | 1.6 (≈ 3.46 µM) | 1.6 (≈ 3.46 µM) | 12.5 (≈ 27 µM) | 12.5 (≈ 27 µM) | 50 (≈ 108 µM) | 0.4 (≈ 0.865 µM) | 1.6 (≈ 3.46 µM) | 0.4 (≈ 0.865 µM)
CCCNCc1ccc(C#Cc2ccc(C(=O)N[C@H](C(=O)NO)C(C)=NOC)cc2)cc1 [Compound 387] | 6.3 (≈ 14.4 µM) | 6.3 (≈ 14.4 µM) | 3.1 (≈ 7.1 µM) | 1.6 (≈ 3.67 µM) | 6.3 (≈ 14.4 µM) | 3.1 (≈ 7.1 µM) | 25 (≈ 57.3 µM) | 0.4 (≈ 0.916 µM) | 1.6 (≈ 3.67 µM) | 0.2 (≈ 0.458 µM)
CON=C(C)[C@H](NC(=O)c1ccc(C#Cc2ccc(CNCc3cccnc3)cc2)cc1)C(=O)NO [Compound 388] | 0.4 (≈ 0.824 µM) | 0.8 (≈ 1.65 µM) | 0.8 (≈ 1.65 µM) | 0.2 (≈ 0.412 µM) | 0.8 (≈ 1.65 µM) | 0.8 (≈ 1.65 µM) | 3.1 (≈ 6.38 µM) | ≤ 0.1 | 0.2 (≈ 0.412 µM) | ≤ 0.1
CON=C(C)[C@H](NC(=O)c1ccc(C#Cc2ccc(CNCc3ccnc(Cl)c3)cc2)cc1)C(=O)NO [Compound 389] | 0.8 (≈ 1.54 µM) | 1.6 (≈ 3.08 µM) | 0.8 (≈ 1.54 µM) | 0.4 (≈ 0.769 µM) | 1.6 (≈ 3.08 µM) | 1.6 (≈ 3.08 µM) | 3.1 (≈ 5.96 µM) | ≤ 0.1 | 0.4 (≈ 0.769 µM) | 0.4 (≈ 0.769 µM)
CON=C(C)[C@H](NC(=O)c1ccc(C#Cc2ccc(CNCc3ccccn3)cc2)cc1)C(=O)NO [Compound 390] | 0.4 (≈ 0.824 µM) | 1.6 (≈ 3.3 µM) | 0.8 (≈ 1.65 µM) | 0.2 (≈ 0.412 µM) | 0.8 (≈ 1.65 µM) | 0.8 (≈ 1.65 µM) | 3.1 (≈ 6.38 µM) | ≤ 0.1 | 0.4 (≈ 0.824 µM) | 0.2 (≈ 0.412 µM)
CON=C(C)[C@H](NC(=O)c1ccc(C#Cc2ccc(CNCc3ccco3)cc2)cc1)C(=O)NO [Compound 391] | 0.4 (≈ 0.843 µM) | 0.4 (≈ 0.843 µM) | 0.4 (≈ 0.843 µM) | ≤ 0.1 | 0.4 (≈ 0.843 µM) | 0.4 (≈ 0.843 µM) | 1.6 (≈ 3.37 µM) | ≤ 0.1 | 0.4 (≈ 0.843 µM) | ≤ 0.1
CON=C(C)[C@H](NC(=O)c1ccc(C#Cc2ccc(CNCc3cccs3)cc2)cc1)C(=O)NO [Compound 392] | 0.4 (≈ 0.815 µM) | 0.4 (≈ 0.815 µM) | 0.4 (≈ 0.815 µM) | ≤ 0.1 | 0.4 (≈ 0.815 µM) | 0.4 (≈ 0.815 µM) | 1.6 (≈ 3.26 µM) | ≤ 0.1 | 0.4 (≈ 0.815 µM) | ≤ 0.1
CON=C(C)[C@H](NC(=O)c1ccc(C#Cc2ccc(CNCc3ccc(C)cc3)cc2)cc1)C(=O)NO [Compound 393] | 0.8 (≈ 1.6 µM) | 1.6 (≈ 3.21 µM) | 0.8 (≈ 1.6 µM) | 0.4 (≈ 0.802 µM) | 6.3 (≈ 12.6 µM) | 6.3 (≈ 12.6 µM) | 6.3 (≈ 12.6 µM) | 0.2 (≈ 0.401 µM) | 0.8 (≈ 1.6 µM) | 0.4 (≈ 0.802 µM)
CON=C(C)[C@H](NC(=O)c1ccc(C#Cc2ccc(CNCC3CCCO3)cc2)cc1)C(=O)NO (stereo partly shown) [Compound 394] | 3.1 (≈ 6.48 µM) | 6.3 (≈ 13.2 µM) | 1.6 (≈ 3.34 µM) | 0.8 (≈ 1.67 µM) | 3.1 (≈ 6.48 µM) | 3.1 (≈ 6.48 µM) | 6.3 (≈ 13.2 µM) | 0.2 (≈ 0.418 µM) | 0.8 (≈ 1.67 µM) | 0.4 (≈ 0.836 µM)
CON=C(C)[C@H](NC(=O)c1ccc(C#Cc2ccc(CNCc3nccs3)cc2)cc1)C(=O)NO [Compound 395] | 0.4 (≈ 0.814 µM) | 0.8 (≈ 1.63 µM) | 0.4 (≈ 0.814 µM) | 0.2 (≈ 0.407 µM) | 0.8 (≈ 1.63 µM) | 0.8 (≈ 1.63 µM) | 3.1 (≈ 6.31 µM) | ≤ 0.1 | 0.2 (≈ 0.407 µM) | 0.2 (≈ 0.407 µM)
CC(=O)[C@H](NC(=O)c1ccc(C#Cc2ccc(CNC3CC3)cc2)cc1)C(=O)NO [Compound 396] | 1.6 (≈ 3.95 µM) | 1.6 (≈ 3.95 µM) | 1.6 (≈ 3.95 µM) | 0.4 (≈ 0.987 µM) | 3.1 (≈ 7.65 µM) | 3.1 (≈ 7.65 µM) | 12.5 (≈ 30.8 µM) | ≤ 0.1 | 0.8 (≈ 1.97 µM) | 0.4 (≈ 0.987 µM)
COCCNCc1ccc(C#Cc2ccc(C(=O)N[C@@H](C(C)=O)C(=O)NO)cc2)cc1 [Compound 398] | 6.3 (≈ 14.9 µM) | 6.3 (≈ 14.9 µM) | 6.3 (≈ 14.9 µM) | 1.6 (≈ 3.78 µM) | 12.5 (≈ 29.5 µM) | 25 (≈ 59 µM) | 25 (≈ 59 µM) | 0.2 (≈ 0.472 µM) | 3.1 (≈ 7.32 µM) | 1.6 (≈ 3.78 µM)
CC(=O)[C@H](NC(=O)c1ccc(C#Cc2ccc(CN3CCOCC3)cc2)cc1)C(=O)NO [Compound 399] | 3.1 (≈ 7.12 µM) | 6.3 (≈ 14.5 µM) | 1.6 (≈ 3.67 µM) | 1.6 (≈ 3.67 µM) | 6.3 (≈ 14.5 µM) | 6.3 (≈ 14.5 µM) | 25 (≈ 57.4 µM) | ≤ 0.1 | 0.8 (≈ 1.84 µM) | 0.4 (≈ 0.919 µM)
CC(=O)C(NC(=O)c1ccc(C#Cc2ccc(CNCc3ccccc3)cc2)cc1)C(=O)NO (stereo not shown) [Compound 400] | 0.8 (≈ 1.76 µM) | 1.6 (≈ 3.51 µM) | 1.6 (≈ 3.51 µM) | 0.2 (≈ 0.439 µM) | 1.6 (≈ 3.51 µM) | 1.6 (≈ 3.51 µM) | 3.1 (≈ 6.81 µM) | ≤ 0.1 | 0.8 (≈ 1.76 µM) | 0.4 (≈ 0.878 µM)

Source: US11034650B2, “Compounds useful for treating a Mannheimia haemolytica or Histophilus somni infection” (Intervet Inc., priority 2016, dated 2021)
